According to patent US8217069B2, “Nitrogenated fused ring derivative, pharmaceutical composition comprising the same, and use of the same for medical purposes” (Kissei Pharmaceutical Co., Ltd., priority 2007, dated 2012):

Target: T1, human GnRH receptor1 (GnRHR1) (Homo sapiens, UniProt P30968)
T1 construct: expressed in transfected cells
T1 sequence (P30968 1-328): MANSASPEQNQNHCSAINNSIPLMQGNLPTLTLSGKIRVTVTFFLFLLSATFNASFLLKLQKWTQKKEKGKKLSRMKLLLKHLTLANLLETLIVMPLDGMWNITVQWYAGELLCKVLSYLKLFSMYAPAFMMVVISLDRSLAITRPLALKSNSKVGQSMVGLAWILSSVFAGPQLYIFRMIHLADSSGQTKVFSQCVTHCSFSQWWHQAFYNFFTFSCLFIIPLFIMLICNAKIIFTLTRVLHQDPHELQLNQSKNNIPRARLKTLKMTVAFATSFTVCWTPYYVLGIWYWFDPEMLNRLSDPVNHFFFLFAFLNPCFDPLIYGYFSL
Test: Assay of inhibitory effect for the change of calcium levels in GnRH-stimulated cells (hGnRHR1#1 HEK293 cells, FLIPR Calcium Assay Kit)
Assay type: cell-based
Conditions: drug concentration at which 50% GnRH-stimulated intracellular calcium flux was inhibited, 10 nM GnRH
Description: 1) Cloning and Construction of the Vector Expressing Human GnRH Receptor1 (GnRHR1)
Using cDNA derived from human pituitary (BECTON DICKINSON) as a template, the DNA fragment coding 45 to 1115 bp of human GnRHR1 (Accession No. L03380), which was reported by Kakar et al., was amplified by PCR method and inserted into the multi-cloning site of pcDNA3.1(+) (Invitrogen). The DNA sequence inserted was perfectly matched to the previously reported sequence.
2) Establishment of Cell Line Stably Expressing Human GnRH Receptor1 HEK293 Cells
The expression vector of human GnRHR1 gene, was digested by XhoI into a linear DNA. The linear DNA was transfected into HEK293 cells by means of lipofection (Lipofectamine-2000: Invitrogen). Neomycin resistant cell lines were selected by culture in the medium containing G418 (Invitrogen) at 1 mg/mL, and then the change of calcium levels in GnRH-stimulated cells was measured by the method described below.
3) Assay of Inhibitory Effect for the Change of Calcium Levels in GnRH-Stimulated Cells
Antagonizing effect of compounds for human GnRHR1 was evaluated by depression of calcium levels in GnRH-stimulated cells. hGnRHR1#1 cells were seeded into a 96-well culture plate at a density of 1.5×10^5 cells/well and cultured for a day. After removing the culture medium, cells were washed with 200 μL per well of the washing buffer (Hanks' Balanced Salt Solutions, 20 mM N-2-hydroxyethylpiperazine-N′-2-ethanesulfonic acid, 1.3 mM calcium chloride, 0.5 mM magnesium chloride, 0.4 mM magnesium sulfate). One hundred μL of the Ca^2+ sensitive dye solution (FLIPR Calcium Assay Kit, Molecular Devices) was added to the well, and the cells were incubated for 1 hour at 37° C. in 5% CO2 incubator. Then, intracellular calcium levels were determined under the following condition by using FLEX STATION (Molecular Devices). In the equipment, which was warmed to 37° C., 50 μL of test compound diluted with the measurement buffer (the washing buffer with 0.1% Albumin bovine serum) was added to the well. After 1 minute, 50 μL of 10 nM GnRH was added to the well. The drug concentration, at which 50% GnRH-stimulated intracellular calcium flux was inhibited (IC50 value), was calculated using logit plot (Table 106).

Structure (SMILES)	IC50 [nM]
COc1cc(F)c(-n2c(=O)[nH]c3c(C)cc(C(=O)O)nc32)cc1SC(C)(C)c1ccccc1Cl [Example 109]	36
COc1cccc(F)c1COc1cc(-n2c(=O)[nH]c3c(OC)nc(CF)nc32)c(Cl)cc1OCCO [Example 251]	54
Cc1cc(CO)nc2c1[nH]c(=O)n2-c1cc(S(=O)(=O)N2CCCCc3ccccc32)ccc1Cl [Example 152, 3-[2-Chloro-5-(2,3,4,5-tetrahydro-1H-1-benzoazepin-1-ylsulfonyl)phenyl]-5-hydroxymethyl-7-methyl-1,3-dihydro-2H-imidazo[4,5-b]pyridin-2-one]	32
COc1cccc(F)c1C(C)(C)S(=O)(=O)c1ccc(Cl)c(-n2c(=O)[nH]c3c(C)cc(C(=O)O)nc32)c1 [Example 128]	24
COc1cc(Cl)c(-n2c(=O)[nH]c3c(OC)ncnc32)cc1OCc1c(OC)ccc(F)c1F [Example 39]	27
COc1cc(Cl)c(-n2c(=O)[nH]c3c(C)nc(N)nc32)cc1OCc1c(OC)ccc(F)c1F [Example 381, 2-Amino-9-[2-chloro-5-(2,3-difluoro-6-methoxybenzyloxy)-4-methoxyphenyl]-6-methyl-7,9-dihydro-8H-purin-8-one]	36
COc1ccc(F)c(F)c1COc1cc(-n2c(=O)[nH]c3c(OC)nc(CF)nc32)c(Cl)cc1OCC(=O)NCCO [Example 341]	32
Cc1cc(/C(N)=N/O)nc2c1[nH]c(=O)n2-c1cc(S(=O)(=O)N2CCCCc3ccccc32)ccc1Cl [Example 160, 3-[2-Chloro-5-(2,3,4,5-tetrahydro-1H-1-benzoazepin-1-ylsulfonyl)phenyl]-5-hydroxycarbamimidoyl-7-methyl-1,3-dihydro-2H-imidazo[4,5-b]pyridin-2-one]	99
COc1ccc(F)c(F)c1COc1cc(-n2c(=O)[nH]c3c(OC)nc(C(F)F)nc32)c(Cl)cc1OCC(=O)N(C)C [Example 345]	17
COc1ncnc2c1[nH]c(=O)n2-c1cc(OCc2c(OCCNC(C)=O)ccc(F)c2F)ccc1Cl [Example 262]	62
COc1cccc(F)c1COc1cc(-n2c(=O)[nH]c3c(OC)nc(CO)nc32)c(Cl)cc1OCC(=O)O [Example 274]	15
COc1ccccc1N(C)S(=O)(=O)c1ccc(Cl)c(-n2c(=O)[nH]c3c(OC)ncnc32)c1 [Example 199]	46
COc1ccc(F)c(F)c1CN(C(C)=O)c1ccc(Cl)c(-n2c(=O)[nH]c3c(C)cc(C(=O)O)nc32)c1 [Example 81]	32
COc1cc(Cl)c(-n2c(=O)[nH]c3c(OC)nc(CCO)nc32)cc1OCc1c(F)cccc1OC [Example 314, 9-[2-Chloro-5-(2-fluoro-6-methoxybenzyloxy)-4-methoxyphenyl]-2-(2-hydroxyethyl)-6-methoxy-7,9-dihydro-8H-purin-8-one]	23
CC(C)(c1ccccc1)S(=O)(=O)c1ccc(Cl)c(-n2c(=O)[nH]c3ccc(C(=O)O)nc32)c1 [Example 35]	193
CNC(=O)COc1cc(Cl)c(-n2c(=O)[nH]c3c(OC)nc(C(C)=O)nc32)cc1OCc1c(OC)ccc(F)c1F [Example 346]	38
CCNC(=O)COc1cc(Cl)c(-n2c(=O)[nH]c3c(C(C)=O)nc(C)nc32)cc1OCc1c(F)cccc1OC [Example 452]	19
Cc1cc(C(=O)O)nc2c1[nH]c(=O)n2-c1cc(S(=O)(=O)N2CCCCc3ccccc32)ccc1F [Example 93]	20
